Assay results reported in patent publication US20210186960A1, “MODULATORS OF INDOLEAMINE 2,3-DIOXYGENASE” (GLAXOSMITHKLINE INTELLECTUAL PROPERTY DEVELOPMENT LIMITED, priority 2017, published 2021).

Legend:
PANO2 pancreatic cells = details: orally dosed, cited from earlier work
[1] = test system: conversion of T cells into CD4+FoxP3+ Tregs; details: co-culture of DCs and naive CD4+CD25- T cells; cited from earlier work
[2] = target: T1, indoleamine 2, 3-dioxygenase (IDO1) (Homo sapiens, UniProt P14902); test: IDO1 PBMC RapidFire MS assay (kynurenine detection); type: cell-based; details: IFN-γ/LPS stimulated human PBMC, kynurenine by MS, 2 days; read-out: PBMC PXC50 (converted)
T1 construct: to induce the expression of indoleamine 2, 3-dioxygenase (IDO1); host or cells: human PBMC stimulated with IFN-gamma and LPS
Description: (§1) Compounds of the present invention were tested via high-throughput cellular assays utilizing detection of kynurenine via mass spectrometry and cytotoxicity as end-points. For the mass spectrometry and cytotoxicity assays, human peripheral blood mononuclear cells (PBMC) (PB003F; AllCells®, Alameda, Calif.) were stimulated with human interferon-γ (IFN-γ) (Sigma-Aldrich Corporation, St. Louis, Mo.) and lipopolysaccharide from Salmonella minnesota (LPS) (Invivogen, San Diego, Calif.) to induce the expression of indoleamine 2, 3-dioxygenase (IDO1). Compounds with IDO1 inhibitory properties decreased the amount of kynurenine produced by the cells via the tryptophan catabolic pathway. Cellular toxicity due to the effect of compound treatment was measured using CellTiter-Glo® reagent (CTG) (Promega Corporation, Madison, Wis.), which is based on luminescent detection of ATP, an indicator of metabolically active cells.
(§2) In preparation for the assays, test compounds were serially diluted 3-fold in
(§3) DMSO from a typical top concentration of 1 mM or 5 mM and plated at 0.5 μL in 384-well, polystyrene, clear bottom, tissue culture treated plates with lids (Greiner Bio-One, Kremsmünster, Austria) to generate 11-point dose response curves. Low control wells (0% kynurenine or 100% cytotoxicity) contained either 0.5 μL of DMSO in the presence of unstimulated (−IFN-γ/−LPS) PBMCs for the mass spectrometry assay or 0.5 μL of DMSO in the absence of cells for the cytotoxicity assay, and high control wells (100% kynurenine or 0% cytotoxicity) contained 0.5 μL of DMSO in the presence of stimulated (+IFN-γ/+LPS) PBMCs for both the mass spectrometry and cytotoxicity assays.
(§4) Frozen stocks of PBMCs were washed and recovered in RPMI 1640 medium (Thermo Fisher Scientific, Inc., Waltham, Mass.) supplemented with 10% v/v heat-inactivated fetal bovine serum (FBS) (Thermo Fisher Scientific, Inc., Waltham, Mass.), and 1× penicillin-streptomycin antibiotic solution (Thermo Fisher Scientific, Inc., Waltham, Mass.). The cells were diluted to 1,000,000 cells/mL in the supplemented RPMI 1640 medium. 50 μL of either the cell suspension, for the mass spectrometry assay, or medium alone, for the cytotoxicity assay, were added to the low control wells, on the previously prepared 384-well compound plates, resulting in 50,000 cells/well or 0 cells/well respectively. IFN- y and LPS were added to the remaining cell suspension at final concentrations of 100 ng/ml and 50 ng/ml respectively, and 50 μL of the stimulated cells were added to all remaining wells on the 384-well compound plates. The plates, with lids, were then placed in a 37 °C, 5% CO2 humidified incubator for 2 days.
(§5) Following incubation, the 384-well plates were removed from the incubator and allowed to equilibrate to room temperature for 30 minutes. For the cytotoxicity assay, CellTiter-Glo® was prepared according to the manufacturer's instructions, and 40 μL were added to each plate well. After a twenty minute incubation at room temperature, luminescence was read on an EnVision® Multilabel Reader (Perkin Elmer Inc., Waltham, Mass.). For the mass spectrometry assay, 10 μL of supernatant from each well of the compound-treated plates were added to 40 μL of acetonitrile, containing 10 μM of an internal standard for normalization, in 384-well, polypropylene, V-bottom plates (Greiner Bio-One, Kremsmunster, Austria) to extract the organic analytes. Following centrifugation at 2000 rpm for 10 minutes, 10 μL from each well of the acetonitrile extraction plates were added to 90 μL of sterile, distilled H2O in 384-well, polypropylene, V-bottom plates for analysis of kynurenine and the internal standard on the RapidFire 300 (Agilent Technologies, Santa Clara, Calif.) and 4000 QTRAP MS (SCIEX, Framingham, Mass.). MS data were integrated using Agilent Technologies' RapidFire Integrator software, and data were normalized for analysis as a ratio of kynurenine to the internal standard. […]

[3] = test system: human peripheral blood mononuclear cells (PBMC); test: PBMC cytotoxicity assay (CellTiter-Glo); type: cell-based; details: pCC50, CellTiter-Glo, stimulated human PBMC, 2 days
Description: as §1, §2, §3, §4, §5

[4] = Plasma PK and tissue distribution after oral dosing of prodrug EXAMPLE 7 (5 mg/kg); type: in vivo; details: PO 5 mg/kg EXAMPLE 7 (prodrug), male Wistar Han rat, analyte as labelled
Description: Tissue Distribution of drug intermediate C4 from oral dosing of C4 and of intermediate C4 from oral dosing of example 7 in rats
• Wistar Han rat, 185-197 g, male, N=8, purchased from Beijing Vital River Co. LTD. Qualification No.: SCXK(J) 2016-0011 11400700240027. Fasted overnight and fed 4 hr post dose. PO: 5 mg/kg (10 mL/kg) via oral gavage(N=8). Sampling at 1, 4, 8 and 24 hr , 4 time points, terminal bleeding for plasma, liver, lymph nodes and spleen collected at each time point

[5] = Rat oral PK studies of prodrugs at 5 mg/kg; type: in vivo; details: after PO dose of 5 mg/kg example 7 in male Wistar Han rat; analyte as labelled
Description: Rat oral PK studies of prodrugs at 5 mg/kg dose (solution in 100% (40 mg oleic acid+25mg Tween 80+2 mL of PBS/fresh) at 0.5 mg/mL).

T1 sequence (P14902 whole entry): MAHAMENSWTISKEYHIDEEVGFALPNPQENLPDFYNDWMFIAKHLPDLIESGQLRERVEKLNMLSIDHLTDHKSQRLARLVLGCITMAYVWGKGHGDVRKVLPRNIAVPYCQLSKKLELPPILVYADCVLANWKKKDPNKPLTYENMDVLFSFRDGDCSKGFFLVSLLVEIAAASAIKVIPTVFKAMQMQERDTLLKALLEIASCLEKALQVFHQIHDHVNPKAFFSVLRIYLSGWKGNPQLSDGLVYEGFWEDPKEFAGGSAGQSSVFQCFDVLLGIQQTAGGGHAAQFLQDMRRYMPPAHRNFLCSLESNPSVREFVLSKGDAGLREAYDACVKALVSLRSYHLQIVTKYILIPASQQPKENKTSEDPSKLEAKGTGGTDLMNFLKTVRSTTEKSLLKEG

NS(=O)(=O)NCCNc1nonc1C(=NO)Nc1ccc(F)c(Br)c1 [INCB204360]
inhibition of tumor growth (PANO2 pancreatic cells; PANO2 syngeneic model, immunocompetent mice): significant dose-dependent inhibition of tumor growth | effect on tumor growth (PANO2 pancreatic cells; same tumor implanted in immune-deficient mice): without effect | conversion of T cells into CD4+FoxP3+ Tregs [1]: blocked the conversion

CCCCCCCCCCCCCCCC(=O)OCC(COC(=O)CCCCCCCCCCCCCCC)OC(=O)CC(C)CC(=O)OCOC(=O)C[C@@H](C)c1ccc(N(CC(C)C)C2CCOCC2)c(Nc2cnc(Cl)cn2)c1 (stereo partly drawn) [example 7, 1-(1,3-bis(palmitoyloxy)propan-2-yl) 5-((((R)-3-(3-((5-chloropyrazin-2-yl)amino)-4-(isobutyl(tetrahydro-2H-pyran-4-yl)amino)phenyl)butanoyl)oxy)methyl) 3-methylpentanedioate]
IC50 [2]: 1000 nM | PBMC TOX PXC50 [3]: <5 | liver Concentration Mean ([4]; 1 hr): BQL | liver Concentration individual ([4]; 1 hr): BQL | lymph node Concentration Mean ([4]; 1 hr): BQL | lymph node Concentration individual ([4]; 1 hr): BQL | plasma Concentration Mean ([4]; 1 hr): BQL | plasma Concentration individual ([4]; 1 hr): BQL | spleen Concentration Mean ([4]; 1 hr): BQL | spleen Concentration individual ([4]; 1 hr): BQL | liver Concentration Mean ([4]; 4 hr): BQL | liver Concentration individual ([4]; 4 hr): BQL | lymph node Concentration Mean ([4]; 4 hr): BQL | lymph node Concentration individual ([4]; 4 hr): BQL | plasma Concentration Mean ([4]; 4 hr): BQL | plasma Concentration individual ([4]; 4 hr): BQL | spleen Concentration Mean ([4]; 4 hr): BQL | spleen Concentration individual ([4]; 4 hr): BQL | liver Concentration Mean ([4]; 8 hr): BQL | liver Concentration individual ([4]; 8 hr): BQL | lymph node Concentration Mean ([4]; 8 hr): BQL | lymph node Concentration individual ([4]; 8 hr): BQL | plasma Concentration Mean ([4]; 8 hr): BQL | plasma Concentration individual ([4]; 8 hr): BQL | spleen Concentration Mean ([4]; 8 hr): BQL | spleen Concentration individual ([4]; 8 hr): BQL | liver Concentration Mean ([4]; 24 hr): BQL | liver Concentration individual ([4]; 24 hr): BQL | lymph node Concentration Mean ([4]; 24 hr): BQL | lymph node Concentration individual ([4]; 24 hr): BQL | plasma Concentration Mean ([4]; 24 hr): BQL | plasma Concentration individual ([4]; 24 hr): BQL | spleen Concentration Mean ([4]; 24 hr): BQL | spleen Concentration individual ([4]; 24 hr): BQL | DNAUC0_20 [5]: not detected
